Assay results published in ChEMBL document CHEMBL1201862, “PubChem BioAssay data set” (2004).
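All cell lines were grown in 96-well plates and treated with compound for 48 hours. The concentration for 50% growth inhibition is given as GI50.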 The source made the active and inactive calls. Cut-off read from the data, not from the text of the source: active = GI50 up to about 1.1 µM and inactive = higher.

Legend:
Assay in all cases: NCI-60 cell line screen, 48 h
CAKI-1 = test system: CAKI-1
SK-OV-3 = test system: SK-OV-3
SF-268 = test system: SF-268
A498 = test system: A498
SN12C = test system: SN12C
SF-295 = test system: SF-295
UACC-257 = test system: UACC-257
TK-10 = test system: TK-10
HL-60 = test system: HL-60
OVCAR-4 = test system: OVCAR-4
MCF7 = test system: MCF7
NCI/ADR-RES = test system: NCI/ADR-RES
M14 = test system: M14
MOLT-4 = test system: MOLT-4
ACHN = test system: ACHN
SW-620 = test system: SW-620
786-0 = test system: 786-0
RPMI-8226 = test system: RPMI-8226
SK-MEL-5 = test system: SK-MEL-5
IGROV-1 = test system: IGROV-1
MDA-MB-231 = test system: MDA-MB-231
K562 = test system: K562
T47D = test system: T47D
SK-MEL-2 = test system: SK-MEL-2
NCI-H23 = test system: NCI-H23
SF-539 = test system: SF-539
SK-MEL-28 = test system: SK-MEL-28
OVCAR-5 = test system: OVCAR-5
MDA-N = test system: MDA-N
Malme-3M = test system: Malme-3M
MDA-MB-435 = test system: MDA-MB-435
HCC 2998 = test system: HCC 2998
HCT-15 = test system: HCT-15
OVCAR-3 = test system: OVCAR-3
Hs-578T = test system: Hs-578T
KM12 = test system: KM12
NCI-H460 = test system: NCI-H460
A549 = test system: A549
HT-29 = test system: HT-29
OVCAR-8 = test system: OVCAR-8
SR = test system: SR
CCRF-CEM = test system: CCRF-CEM
LOX IMVI = test system: LOX IMVI
HCT-116 = test system: HCT-116
DU-145 = test system: DU-145
PC-3 = test system: PC-3
HOP-92 = test system: HOP-92
RXF 393 = test system: RXF 393
NCI-H226 = test system: NCI-H226
EKVX = test system: EKVX
UACC-62 = test system: UACC-62
COLO 205 = test system: COLO 205
U-251 = test system: U-251
SNB-19 = test system: SNB-19
NCI-H522 = test system: NCI-H522
SNB-75 = test system: SNB-75
HOP-62 = test system: HOP-62

CC1=NN(c2ccccc2)C(=O)/C1=C/c1ccc(O)cc1
GI50 (CAKI-1): > 100 µM (inactive) | GI50 (SK-OV-3): > 100 µM (inactive) | GI50 (SF-268): > 100 µM (inactive) | GI50 (A498): > 100 µM (inactive) | GI50 (SN12C): > 100 µM (inactive) | GI50 (SF-295): > 100 µM (inactive) | GI50 (UACC-257): > 100 µM (inactive) | GI50 (TK-10): > 100 µM (inactive) | GI50 (HL-60): > 100 µM (inactive) | GI50 (OVCAR-4): > 100 µM (inactive) | GI50 (MCF7): > 100 µM (inactive) | GI50 (NCI/ADR-RES): > 100 µM (inactive) | GI50 (M14): > 100 µM (inactive) | GI50 (MOLT-4): > 100 µM (inactive) | GI50 (ACHN): > 100 µM (inactive) | GI50 (SW-620): > 100 µM (inactive) | GI50 (786-0): > 100 µM (inactive) | GI50 (RPMI-8226): 61.8 µM (inactive) | GI50 (SK-MEL-5): > 100 µM (inactive) | GI50 (IGROV-1): > 100 µM (inactive) | GI50 (MDA-MB-231): > 100 µM (inactive) | GI50 (K562): > 100 µM (inactive) | GI50 (T47D): > 100 µM (inactive) | GI50 (SK-MEL-2): > 100 µM (inactive) | GI50 (NCI-H23): > 100 µM (inactive) | GI50 (SF-539): > 100 µM (inactive) | GI50 (SK-MEL-28): > 100 µM (inactive) | GI50 (OVCAR-5): > 100 µM (inactive) | GI50 (MDA-N): > 100 µM (inactive) | GI50 (Malme-3M): > 100 µM (inactive) | GI50 (MDA-MB-435): > 100 µM (inactive) | GI50 (HCC 2998): > 100 µM (inactive) | GI50 (HCT-15): > 100 µM | GI50 (OVCAR-3): > 100 µM (inactive) | GI50 (Hs-578T): > 100 µM (inactive) | GI50 (KM12): > 100 µM (inactive) | GI50 (NCI-H460): > 100 µM (inactive) | GI50 (A549): > 100 µM (inactive) | GI50 (HT-29): > 100 µM (inactive) | GI50 (OVCAR-8): > 100 µM (inactive) | GI50 (SR): 84.3 µM (inactive) | GI50 (CCRF-CEM): > 100 µM (inactive) | GI50 (LOX IMVI): > 100 µM (inactive) | GI50 (HCT-116): > 100 µM (inactive) | GI50 (DU-145): > 100 µM (inactive) | GI50 (PC-3): > 100 µM (inactive) | GI50 (HOP-92): > 100 µM (inactive) | GI50 (RXF 393): > 100 µM (inactive) | GI50 (NCI-H226): > 100 µM (inactive) | GI50 (EKVX): > 100 µM (inactive) | GI50 (UACC-62): > 100 µM (inactive) | GI50 (COLO 205): > 100 µM (inactive) | GI50 (U-251): > 100 µM (inactive) | GI50 (SNB-19): > 100 µM (inactive)

NC(=O)C(=CNC(=S)Nc1ccccc1)C(N)=O
GI50 (CAKI-1): > 100 µM (inactive) | GI50 (SK-OV-3): > 100 µM (inactive) | GI50 (NCI-H522): > 100 µM (inactive) | GI50 (SNB-75): 64.9 µM (inactive) | GI50 (SF-268): > 100 µM (inactive) | GI50 (A498): > 100 µM (inactive) | GI50 (SN12C): > 100 µM (inactive) | GI50 (SF-295): > 100 µM (inactive) | GI50 (UACC-257): > 100 µM (inactive) | GI50 (HL-60): > 100 µM (inactive) | GI50 (OVCAR-4): > 100 µM (inactive) | GI50 (MCF7): > 100 µM (inactive) | GI50 (NCI/ADR-RES): > 100 µM (inactive) | GI50 (M14): > 100 µM (inactive) | GI50 (MOLT-4): > 100 µM (inactive) | GI50 (ACHN): > 100 µM (inactive) | GI50 (SW-620): > 100 µM (inactive) | GI50 (786-0): > 100 µM (inactive) | GI50 (RPMI-8226): > 100 µM (inactive) | GI50 (SK-MEL-5): > 100 µM (inactive) | GI50 (IGROV-1): > 100 µM (inactive) | GI50 (MDA-MB-231): > 100 µM (inactive) | GI50 (K562): > 100 µM (inactive) | GI50 (T47D): 97.7 µM (inactive) | GI50 (SK-MEL-2): > 100 µM (inactive) | GI50 (NCI-H23): > 100 µM (inactive) | GI50 (SF-539): > 100 µM (inactive) | GI50 (SK-MEL-28): > 100 µM (inactive) | GI50 (OVCAR-5): > 100 µM (inactive) | GI50 (MDA-N): > 100 µM (inactive) | GI50 (Malme-3M): > 100 µM (inactive) | GI50 (MDA-MB-435): > 100 µM (inactive) | GI50 (HCC 2998): > 100 µM (inactive) | GI50 (HOP-62): > 100 µM (inactive) | GI50 (HCT-15): > 100 µM | GI50 (OVCAR-3): 1.05 µM (active) | GI50 (Hs-578T): 45 µM (inactive) | GI50 (KM12): > 100 µM (inactive) | GI50 (NCI-H460): > 100 µM (inactive) | GI50 (A549): > 100 µM (inactive) | GI50 (HT-29): > 100 µM (inactive) | GI50 (OVCAR-8): > 100 µM (inactive) | GI50 (SR): > 100 µM (inactive) | GI50 (CCRF-CEM): > 100 µM (inactive) | GI50 (LOX IMVI): > 100 µM (inactive) | GI50 (HCT-116): > 100 µM (inactive) | GI50 (DU-145): > 100 µM (inactive) | GI50 (PC-3): > 100 µM (inactive) | GI50 (HOP-92): 29.9 µM (inactive) | GI50 (RXF 393): > 100 µM (inactive) | GI50 (NCI-H226): > 100 µM (inactive) | GI50 (EKVX): > 100 µM (inactive) | GI50 (UACC-62): > 100 µM (inactive) | GI50 (COLO 205): > 100 µM (inactive) | GI50 (U-251): > 100 µM (inactive) | GI50 (SNB-19): > 100 µM (inactive)
